Assay results: patent publication US11618749B2, “Compounds and compositions for treating conditions associated with STING activity” (IFM Due, Inc., priority 2018, dated 2023)

Target: T1, hSTING (Homo sapiens, UniProt Q86WV6, G230A/H232R/R293Q/R71H)
T1 construct: host or cells: THP1-Dual KO-IFNAR2 cells
Assay: STING reporter assay (luciferase reporter) in THP1-Dual KO-IFNAR2 cells activated with 2′3′cGAMP
Format: cell-based
Details: 15 μM 2′3′cGAMP, 24 h, luciferase reporter activity
Description: STING pathway activation by the compounds described herein is measured using THP1-Dual™ cells (KO-IFNAR2).
THP1-Dual™ KO-IFNAR2 Cells (obtained from invivogen) are maintained in RPMI, 10% FCS, 5 ml P/S, 2 mM L-glut, 10 mM Hepes, and 1 mM sodium pyruvate. Compounds are spotted in empty 384 well tissue culture plates (Greiner 781182) by Echo for a final concentration of […]. Cells are plated into the TC plates at 40 μL per well, 2×10E6 cells/mL. For activation with STING ligand, 2′3′cGAMP (MW 718.38, obtained from Invivogen), is prepared in Optimem media.
The following solutions are prepared for each 1×384 plate: • Solution A: 2 mL Optimem with one of the following stimuli: • 60 uL of 10 mM 2′3′cGAMP→150 μM stock • Solution B: 2 mL Optimem with 60 μL Lipofectamine 2000→Incubate 5 min at RT
2 mL of solution A and 2 ml Solution B is mixed and incubated for 20 min at room temperature (RT). 20 uL of transfection solution (A+B) is added on top of the plated cells, with a final 2′3′cGAMP concentration of 15 μM. The plates are then centrifuged immediately at 340 g for 1 minute, after which they are incubated at 37° C., 5% CO2, >98% humidity for 24 h. Luciferase reporter activity is then measured. EC50 values were calculated by using standard methods known in the art.
Luciferase Reporter Assay:
10 μL of supernatant from the assay is transferred to white 384-plate with flat bottom and squared wells. one pouch of QUANTI-Luc™ Plus is dissolved in 25 mL of water. 100 μL of QLC Stabilizer per 25 mL of QUANTI-Luc™ Plus solution was added. 50 μL of QUANTI-Luc™ Plus/QLC solution per well is then added. Luminescence is measured on a Platereader (e.g., Spectramax I3X (Molecular Devices GF3637001)).
Luciferase reporter activity is then measured. EC50 values are calculated by using standard methods known in the art.

T1 sequence (Q86WV6 whole entry R71H/G230A/H232R/R293Q): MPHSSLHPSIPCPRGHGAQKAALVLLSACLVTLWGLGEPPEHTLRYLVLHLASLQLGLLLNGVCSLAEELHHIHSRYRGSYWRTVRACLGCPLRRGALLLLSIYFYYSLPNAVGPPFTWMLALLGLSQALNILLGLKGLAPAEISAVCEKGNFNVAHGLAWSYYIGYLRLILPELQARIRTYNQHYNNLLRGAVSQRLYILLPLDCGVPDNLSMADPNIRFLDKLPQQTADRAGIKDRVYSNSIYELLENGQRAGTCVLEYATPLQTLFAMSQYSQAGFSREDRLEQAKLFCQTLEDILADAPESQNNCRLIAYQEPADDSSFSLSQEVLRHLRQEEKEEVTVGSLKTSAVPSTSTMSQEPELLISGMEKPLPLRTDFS

EC50, 5 to 100 µM:
O=C(Nc1c[nH]c2ncccc12)NC1CC(c2ccccc2)C1 (centres unmarked) [Compound 133]
O=C(Nc1c[nH]c2ncccc12)NC1CCCc2ccccc21 (centres unmarked) [Compound 135]
O=C(Nc1c[nH]c2ncccc12)NC1CCc2ccccc2C1 (centres unmarked) [Compound 136]
O=C(Nc1c[nH]c2cccnc12)NC1CCC(C(F)(F)F)CC1 (centres unmarked) [Compound 141]
O=C(Nc1cccc(C(F)(F)F)c1)Nc1c[nH]c2cnccc12 [Compound 149]
O=C(Nc1ccc(C(F)(F)F)cn1)Nc1c[nH]c2cccnc12 [Compound 152]
CN(C(=O)Nc1c[nH]c2cccnc12)c1ccc(C(F)(F)F)cc1 [Compound 154]
O=C(Nc1ccc(C(F)(F)F)nc1)Nc1c[nH]c2cccnc12 [Compound 156]
O=C(Nc1c[nH]c2cccnc12)NC1CC2CCC(C2)C1 (centres unmarked) [Compound 157]
O=C(Nc1c[nH]c2cccnc12)N1CCC2(CCCC2)CC1 [Compound 159, N-(1H-pyrrolo[3,2-b]pyridin-3-yl)-8-azaspiro[4.5]decane-8-carboxamide]
O=C(Nc1c[nH]c2ncccc12)NC1CC2CCC(C2)C1 (centres unmarked) [Compound 160]
O=C(Nc1c[nH]c2ccncc12)NC1CC2CCC(C2)C1 (centres unmarked) [Compound 161]
O=C(Nc1c[nH]c2ncc(-c3ccccc3)cc12)NC1CCC(C(F)(F)F)CC1 (centres unmarked) [Compound 162, 3-[5-phenyl-1H-pyrrolo[2,3-b]pyridin-3-yl]-1l-[4-(trifluoromethyl)cyclohexyl]urea]
O=C(Nc1ccc(C(F)(F)F)cc1)Nc1c[nH]c2cncc(F)c12 [Compound 164]
CCCCC1CCCN(C(=O)Nc2c[nH]c3ncccc23)C1 (centres unmarked) [Compound 167]
CCc1cnc(NC(=O)Nc2c[nH]c3ncccc23)s1 [Compound 168]
CCc1ccc(NC(=O)Nc2c[nH]c3ncccc23)nc1 [Compound 169]
CCc1ccc(CNC(=O)Nc2c[nH]c3ncccc23)cc1 [Compound 171]
CN(C(=O)Nc1c[nH]c2ncc(F)cc12)c1ccc(C(F)(F)F)cc1 [Compound 172]
O=C(Nc1ccc(C(F)(F)F)cc1)Nc1c[nH]c2cnc(-c3ccccc3)nc12 [Compound 180]
O=C(Nc1ccc(C(F)(F)F)cc1)Nc1c[nH]c2c(Cl)ncnc12 [Compound 183]
CCc1ccc(NC(=O)Nc2c[nH]c3ncncc23)cc1 [Compound 183b]
CC(C)n1cc(-c2ccnc3[nH]cc(NC(=O)Nc4ccc(C(F)(F)F)cc4)c23)cn1 [Compound 186]
O=C(Nc1ccc(C(F)(F)F)cc1)Nc1c[nH]c2ncc(-c3ccc(N4CCOCC4)nc3)cc12 [Compound 188]
O=C(Nc1ccc(C(F)(F)F)cc1)Nc1c[nH]c2nccc(-c3cccnc3)c12 [Compound 189]
CC(c1ccc(-c2ccnc3[nH]cc(NC(=O)Nc4ccc(C(F)(F)F)cc4)c23)cc1)N(C)C (centres unmarked) [Compound 192]
CN1CC=C(c2ccnc3[nH]cc(NC(=O)Nc4ccc(C(F)(F)F)cc4)c23)CC1 [Compound 195]
CC(c1ccc(-c2cnc3[nH]cc(NC(=O)Nc4ccc(C(F)(F)F)cc4)c3c2)cc1)N(C)C (centres unmarked) [Compound 196]
O=C(Nc1ccc(C(F)(F)F)cc1)Nc1c[nH]c2nccc(C3=CCOCC3)c12 [Compound 203]
CC(C)(O)c1cccc(-c2ccnc3[nH]cc(NC(=O)Nc4ccc(C(F)(F)F)cc4)c23)c1 [Compound 205]
O=C(Nc1ccc(C(F)(F)F)cc1)Nc1c[nH]c2nccc(-c3ccncc3)c12 [Compound 206]
CS(=O)(=O)c1ccc(-c2cnc3[nH]cc(NC(=O)Nc4ccc(C(F)(F)F)cc4)c3c2)cc1 [Compound 207]
CN1CC=C(c2cnc3[nH]cc(NC(=O)Nc4ccc(C(F)(F)F)cc4)c3c2)CC1 [Compound 213]
COc1ccc(F)c(F)c1-c1cnc2[nH]cc(NC(=O)Nc3ccc(C(F)(F)F)cc3)c2c1 [Compound 214]
CCCCc1ccc(N(CC)C(=O)Nc2c[nH]c3ncc(F)cc23)cc1 [Compound 245]
Nc1cnc2[nH]cc(NC(=O)N3CC(c4ccccc4)C3)c2c1 [Compound 249]
O=C(Nc1c[nH]c2ncc(F)cc12)NC1CCN(CC(F)(F)F)CC1 [Compound 252]

EC50, 0.04 to 0.2 µM:
O=C(Nc1ccc(C(F)(F)F)cc1)Nc1c[nH]c2ncc(Br)cc12 [Compound 147]
O=C(Nc1ccc(C(F)(F)F)cc1)Nc1c[nH]c2ncc(F)cc12 [Compound 173, 1-(5-fluoro-1H-pyrrolo[2,3-b]pyridin-3-yl)-3-(4-(trifluoromethyl)phenyl)urea]
CCc1ccc(NC(=O)Nc2c[nH]c3ncc(F)cc23)cc1 [Compound 174]

EC50, 0.2 to 1 µM:
O=C(Nc1ccc(C(F)(F)F)cn1)Nc1c[nH]c2ncc(F)cc12 [Compound 138]
O=C(Nc1cccc(C2CCCCC2)c1)Nc1c[nH]c2cccnc12 [Compound 139]
O=C(Nc1ccc(C(F)(F)F)cc1)Nc1c[nH]c2ccncc12 [Compound 145]
N#Cc1cnc2[nH]cc(NC(=O)Nc3ccc(C(F)(F)F)cc3)c2c1 [Compound 151]
Cc1cnc2[nH]cc(NC(=O)Nc3ccc(C(F)(F)F)cc3)c2c1 [Compound 163]
O=C(Nc1ccc(C(F)(F)F)cc1)Nc1c[nH]c2c(F)cncc12 [Compound 165]
O=C(Nc1c[nH]c2ncccc12)NC1CCC(c2ccccc2)CC1 (centres unmarked) [Compound 166]
CCCCC1CCC(NC(=O)Nc2c[nH]c3ncccc23)CC1 (centres unmarked) [Compound 170]
CC(C)n1cc(-c2cnc3[nH]cc(NC(=O)Nc4ccc(C(F)(F)F)cc4)c3c2)cn1 [Compound 193]
O=C(Nc1ccc(C(F)(F)F)cc1)Nc1c[nH]c2ncc(-c3ccc(OCC4CC4)nc3)cc12 [Compound 211]
O=C(Nc1c[nH]c2ncc(F)cc12)NC1CCC(Cc2ccccc2)CC1 (centres unmarked) [Compound 248]
O=C(Nc1ccc(C2CCC2)c(F)c1)Nc1c[nH]c2ncc(F)cc12 [Compound 250]
C#Cc1cccc(NC(=O)Nc2c[nH]c3ncc(F)cc23)c1 [Compound 251]

EC50, 1 to 5 µM:
CCCCC1CCN(C(=O)Nc2c[nH]c3ncccc23)CC1 [Compound 132]
O=C(Nc1c[nH]c2cnccc12)NC1CCC(c2ccccc2)CC1 (centres unmarked) [Compound 137]
CCCCC1CCN(C(=O)Nc2c[nH]c3cccnc23)CC1 [Compound 140]
O=C(Nc1c[nH]c2cccnc12)NC1CCC2(CCC2)CC1 [Compound 142]
O=C(Nc1ccc(C(F)(F)F)cc1)Nc1c[nH]c2ncc(-c3ccccc3)cc12 [Compound 143, 1-(5-phenyl-1H-pyrrolo[2,3-b]pyridin-3-yl)-3-(4-(trifluoromethyl)phenyl)urea]
O=C(Nc1ccc(C(F)(F)F)cc1)Nc1c[nH]c2cnccc12 [Compound 144]
O=C(Nc1ccc(C(F)(F)F)cc1)Nc1c[nH]c2cccnc12 [Compound 146]
O=C(Nc1cccc(C(F)(F)F)c1)Nc1c[nH]c2ccncc12 [Compound 148]
O=C(Nc1cccc(C(F)(F)F)c1)Nc1c[nH]c2ncccc12 [Compound 150]
CN1CCN(c2ccc(-c3cnc4[nH]cc(NC(=O)Nc5ccc(C(F)(F)F)cc5)c4c3)cc2)CC1 [Compound 197]
Cn1cc(-c2cnc3[nH]cc(NC(=O)Nc4ccc(C(F)(F)F)cc4)c3c2)c(C(F)(F)F)n1 [Compound 198]
CN(C)S(=O)(=O)c1cccc(-c2cnc3[nH]cc(NC(=O)Nc4ccc(C(F)(F)F)cc4)c3c2)c1 [Compound 204]
CC(C)(O)c1ccc(-c2cnc3[nH]cc(NC(=O)Nc4ccc(C(F)(F)F)cc4)c3c2)cc1 [Compound 209]
O=C(Nc1ccc(C(F)(F)F)cc1)Nc1c[nH]c2ncc(-c3cccnc3)cc12 [Compound 210]
O=C(Nc1ccc(C(F)(F)F)cc1)Nc1c[nH]c2ncc(C3=CCOCC3)cc12 [Compound 212]
CC(C)(O)c1cccc(-c2cnc3[nH]cc(NC(=O)Nc4ccc(C(F)(F)F)cc4)c3c2)c1 [Compound 215]
CCCCc1ccc(N(C)C(=O)Nc2c[nH]c3ncc(F)cc23)cc1 [Compound 246]
O=C(Nc1c[nH]c2ncc(F)cc12)NC1CCC2(CCC2)CC1 [Compound 247]
